# Assay results as given in patent publication US20160038519A1, “ADMINISTRATION OF KARENITECIN FOR THE TREATMENT OF ADVANCED OVARIAN CANCER, INCLUDING CHEMOTHERAPY-RESISTANT AND/OR THE MUCINOUS ADENOCARCINOMA SUB-TYPES” (BioNumerik Pharmaceuticals, Inc., priority 2014, published 2016).
# Read-outs that look alike come from different tables or passages of the source.
# Assays:
# [1] = system: platinum-refractory epithelial ovarian cancer; settings: cited from earlier work
# [2] = system: resistant subline containing less than 4% of the topoisomerase I activity; settings: subline with less than 4% of topoisomerase I activity; cited from earlier work
# [3] = system: MDR-expressing sublines; settings: cited from earlier work; for Resistance of MDR-expressing sublines relative to parental wild-type cells: comparison studies
# [4] = system: human breast, ovarian and lymphoma cancer cell lines; experiment: Paclitaxel induced apoptosis (PARP cleavage, Bcl-2 phosphorylation, DNA laddering); type: cell-based
# Text: (§1) Tavocept mediates the non-enzymatic xenobiotic modification of sulfur-containing amino acid residues (e.g., cysteine) on proteins. As an engineered, non-naturally occurring agent (i.e., xenobiotic), Tavocept is autocatalytic and requires no protein cofactor to cause the xenobiotic modification of cysteine, but appears to be specific for cysteine residues located within a particular structural context (i.e., not all cysteines in a protein are so modified). Tavocept-mediated, xenobiotic modification represents a novel mechanism of action for a cancer treating agent and can be compared, to a degree, with post-translational modifications of cysteine residues in proteins (see, Table 3, below). By way of non-limiting example, some of the important elements of Tavocept's effectiveness as a compound in the treatment of cancer are its selectivity for normal cells versus cancer cells and its absence of interference with the anti-cancer activity of cancer treating agents.
# [5] = system: mucinous cell lines (JHOM2B, OMC3, and COV644); experiment: SRB assay, joint statements for the mucinous cell lines incl. effect of BNP7787 on BNP1350-induced cytotoxicity; type: cell-based, human
# Protocol: (§2) In vitro studies were conducted in human mucinous ovarian cancer cell lines including JHOM2B, OMC3, and COV644. In one series of experiments, the dose response curves for BNP1350 (also known as Karenitecin), SN-38 (Irinotecan), and Topotecan were obtained and IC50 values were determined. In a second series of experiments, the effect of BNP7787 (2,2′-dithio-bis-ethane sulfonate; Tavocept) on BNP1350-induced cytotoxicity at selected BNP1350 concentrations was examined.
# The JHOM2B and OMC3 cell lines were purchased from Riken Cell Bank (Japan). The COV644 cell line was purchased from SigmaAldrich. Cells were maintained as monolayered cultures in T-75 flasks and then seeded to microtiter plate wells for experiments. Population doubling-times for these three cell lines were long (i.e., exceeding 40 hours, and for some of the cell lines approaching 96 hours); therefore, the Applicants conducted initial pilot experiments and determined optimal seeding density to obtain A570 values in untreated controls that would fall within the linear range of the SRB assay after seven (7) total days of cell growth. […]
# The cells were manipulated in a Microzone laminar flow hood traditionally used for maintaining aseptic environments around automated instrumentation such as microplate robots, and the like. […] Cells were counted using a ViCell counter (Beckman-Coulter). An automated plate washer/stacker (ELx405/BioStak from BioTek Instruments) and a microplate reader (SpectraMax Plus from Molecular Devices) were used for conducting the SRB assay and determining A570 values for wells in the plates and the percentage of control values. Prior to SRB assays, cell viability was monitored by evaluation of microtiter plate wells. […]
# The sulforhodamine B (SRB) cytotoxicity assay was used to assess cell survival. […] Plates were agitated (gently) for 5 minutes and the absorbance values of the SRB dye-protein adduct at 570 nanometers (A570) were determined using an automated microtiter plate reader (SpectraMax Plus, Molecular Devices). […]
# [6] = system: human cancer cell lines; experiment: Paclitaxel- and platinum-induced cytotoxicity; type: cell-based
# Text: as §1
# [7] = Limit of solubility in cell culture medium; type: physicochemical; settings: aqueous buffer
# Protocol: (§3) The 1050 values exceeded the solubility in medium for each compound—the limit of solubility in cell culture medium for the compounds were as follows: 2 micromolar for BNP1350 and SN38, and 20 micromolar for Topotecan. Cells were treated for periods of 2.5 hours or 6 hours and, in each case, the […] values were not reached. Longer treatments were not performed.
# [8] = system: stage III/IV advanced epithelial ovarian cancer resistant or refractory to platinum- and taxane-based regimens
# Protocol: Such Phase III clinical trial is sometimes referred to herein as the “Karenitecin Phase III Trial”.
# The Primary Endpoint of the disclosed Karenitecin Phase III Trial was Progression Free Survival (“PFS”); which was defined as the time period from the date of randomization to the date of first radiographically-documented Progressive Disease (“PD”) or date of death due to any cause, taking the event date that occurs first. The date of PD was determined by radiographical objective disease (RECIST) measurement. The Secondary Endpoints of the disclosed Karenitecin Phase III Trial included: (i) Overall Survival (hereinafter “OS”), defined as the time from the date of randomization to the date of death due to any cause; (ii) Incidence of anemia, defined as the proportion of subjects who experience ≧grade 3 anemia based on National Cancer Institute Common Terminology Criteria for Adverse Events (NCI-CTCAE) criteria at any time post-baseline after receiving study treatment; (iii) Incidence of neutropenia (including febrile neutropenia), defined as the proportion of subjects who experience ≧grade 3 neutropenia based on NCI-CTCAE criteria at any time post-baseline after receiving study treatment; and (iv) Incidence of thrombocytopenia, defined as the proportion of subjects who experience ≧grade 3 thrombocytopenia based on NCI-CTCAE criteria at any time post-baseline after receiving study treatment.
# Approximately 80 study centers participated in this clinical study. The primary endpoint was Progression Free Survival (PFS); defined as the time period from the date of randomization to the date of first radiographically documented progressive disease or disease progression (“PD”) or date of death due to any cause, taking the event date that occurs first.
# The primary endpoint was Progression Free Survival (PFS); defined as the time period from the date of randomization to the date of first radiographically documented progressive disease (PD) or date of death due to any cause, taking the event date that occurs first. The date of PD was determined by radiographically objective disease (RECIST) measurement.
# • Overall Survival (OS), defined as the time from the date of randomization to the date of death due to any cause. • Incidence of anemia, defined as the proportion of subjects who experience ≧grade 3 anemia based on National Cancer Institute Common Terminology Criteria for Adverse Events (NCI-CTCAE) criteria at any time post-baseline after receiving study treatment. • Incidence of neutropenia (including febrile neutropenia), defined as the proportion of subjects who experience ≧grade 3 neutropenia based on NCI-CTCAE criteria at any time post-baseline after receiving study treatment. • Incidence of thrombocytopenia, defined as the proportion of subjects who experience ≧grade 3 thrombocytopenia based on NCI-CTCAE criteria at any time post-baseline after receiving study treatment.
# During this period, subjects received either Karenitecin (1.0 mg/m^2/day administered as a 60-minute intravenous infusion) or Topotecan (1.5 mg/m^2/day administered as a 30-minute intravenous infusion) daily for 5 consecutive days, every 21 days (one treatment cycle=21 days).
# [9] = system: JHOM2B Cell Line; experiment: SRB cytotoxicity assay, JHOM2B; type: cell-based, human; settings: Homo sapiens
# Protocol: as §2
# (§4) The JHOM2B and OMC3 cell lines were purchased from Riken Cell Bank (Japan). The COV644 cell line was purchased from SigmaAldrich. Cells were maintained as monolayered cultures in T-75 flasks and then seeded to microtiter plate wells for experiments. Population doubling-times for these three cell lines were long (i.e., exceeding 40 hours, and for some of the cell lines approaching 96 hours); therefore, the Applicants conducted initial pilot experiments and determined optimal seeding density to obtain A570 values in untreated controls that would fall within the linear range of the SRB assay after seven (7) total days of cell growth. JHOM2B cells were cultured in DMEM:F12 (1:1)+0.1 mM non-essential amino acids (NEAA)+10% FBS and were seeded at 6,000 cells per well. OMC3 cells were cultured in HamF12+10% FBS and were seeded at 8,000 cells per well. COV644 cells were cultured in DMEM+2 mM glutamine+10% FBS and were seeded at 6,000 cells per well.
# (§5) The cells were manipulated in a Microzone laminar flow hood traditionally used for maintaining aseptic environments around automated instrumentation such as microplate robots, and the like. Cells were grown and maintained at 37° C. in a humidified atmosphere containing 5% CO2 in a water jacketed cell culture incubator (Forma Scientific). Cells were counted using a ViCell counter (Beckman-Coulter). An automated plate washer/stacker (ELx405/BioStak from BioTek Instruments) and a microplate reader (SpectraMax Plus from Molecular Devices) were used for conducting the SRB assay and determining A570 values for wells in the plates and the percentage of control values. Prior to SRB assays, cell viability was monitored by evaluation of microtiter plate wells. Dead cells detach and float while living cells remain attached to the bottom of the cell well.
# (§6) SN-38 (Irinotecan; Sigma H0165, lot MKBQ4981) and Topotecan (Sigma T2705, lot 052M4728V) were purchased from SigmaAldrich. BNP1350 (lot KN-C192-135) and BNP7787 (lot 205001) were synthesized at BioNumerik Pharmaceuticals, Inc. (San Antonio, Tex.). BNP1350, SN38, and Topotecan were prepared as 2.5, 2.5, and 25 mM stocks in DMSO (ATCC, cell culture grade).
# (§7) The sulforhodamine B (SRB) cytotoxicity assay was used to assess cell survival. Briefly, after the medium was decanted from individual plate wells, trichloroacetic acid (100 μL of 10.0 percent solution) was added to each well, and the plates were incubated at 4° C. for 1 hour. The plates were washed five times with water using an automated microplate washer (Model ELx405, Bio-Tek Instruments), SRB solution (100 μL of 0.4% SRB dissolved in 1.0 percent acetic acid) was added, and plates remained at room temperature for 15 minutes. The plates were then washed five times using acetic acid (1.0 percent), air dried, and bound dye was solubilized in Tris base (150 μL, 10 mM). Plates were agitated (gently) for 5 minutes and the absorbance values of the SRB dye-protein adduct at 570 nanometers (A570) were determined using an automated microtiter plate reader (SpectraMax Plus, Molecular Devices). IC50 values were extrapolated from dose response curves of the data using OriginLab Software.
# [10] = system: OMC3 Cell Line; experiment: SRB cytotoxicity assay, OMC3; type: cell-based, human; settings: Homo sapiens
# Protocol: as §2, §4, §5, §6, §7
# [11] = system: COV644 Cell Line; experiment: SRB cytotoxicity assay, COV644; type: cell-based, human
# Protocol: as §2, §4, §5, §6, §7, §3
# [12] = Mucinous adenocarcinoma subtype
# [13] = 2 hour drug exposure, average of Test 1 and Test 2, read-out: IC50, Average
# [14] = 2 hour drug exposure, read-out: IC50, Test 1 (2 replicate plates)
# [15] = 2 hour drug exposure, read-out: IC50, Test 2 (3 replicate plates)
structure (smiles),measurement,setting,value
N.N.O=C([O-])C1(C(=O)[O-])CCC1.[Pt+2] [carboplatin],Stable disease,[1]; 6 subjects,18%
same,"Response rate, subgroup with platinum-free interval of 12 months",[1]; 26 subjects (7/26),27%
same,Overall response rate to platinum reinduction,"[1]; 33 subjects, single-agent carboplatin after taxane failure",21%
same,Median duration of response,[1]; in vivo,≥ 7 months
CC[C@@]1(O)C(=O)OCc2c1cc1n(c2=O)Cc2cc3ccccc3nc2-1 [camptothecin],Decrease in sensitivity of resistant subline compared with wild-type parental cells,[2],1000 fold
same,Resistance of MDR-expressing sublines relative to parental wild-type cells,[3],No increase in resistance
"O=S(=O)([O-])CCSSCCS(=O)(=O)[O-].[Na+].[Na+] [BNP7787, 2,2′-dithio-bis-ethane sulfonate]",Interference with paclitaxel induced apoptosis,[4],does not interfere
same,Effect on BNP1350-induced cytotoxicity,"[5]; BNP7787 1 or 10 mM added simultaneously with approximate IC50 and IC25 values of BNP1350, each cell line",no notable effect
same,Effect on cell survival as single agent,"[5]; BNP7787 alone, 1 and 10 mM",did not affect cell survival
same,Interference with paclitaxel- and platinum-induced cytotoxicity,[6],not to interfere
CC[C@@]1(O)C(=O)OCc2c1cc1n(c2=O)Cc2cc3c(CN(C)C)c(O)ccc3nc2-1 [Topotecan],solubility,[7],20 µM
same,Median PFS,[8]; [12],9.1 weeks
same,"Overall survival (OS), third quartile",[8]; [12],19.4 months
same,Median PFS,"[8]; overall trial population, IRC-determined",17.8 weeks
same,Median PFS,[8]; refractory or resistant and/or mucinous subpopulation,18.7 weeks
same,IC50,[9]; [13],5.17 µM
same,IC50,[9]; [14],4.75 ± 0.25 µM
same,IC50,[9]; [15],5.59 ± 0.28 µM
same,IC50,[9]; read-out: IC50 values,5.17 µM
same,IC50,[10]; [13],3.94 µM
same,IC50,[10]; [14],3.12 ± 0.18 µM
same,IC50,[10]; [15],4.76 ± 0.25 µM
same,IC50,[10]; read-out: IC50 values,3.94 µM
same,Resistance of MDR-expressing sublines relative to parental wild-type cells,[3],nine-fold more resistant
same,IC50,"[11]; Homo sapiens, 2, 5, and 6 hour drug exposures, did not reach 50% of Control, read-out: IC50, Test 1 (2 replicate plates)",> 20 µM
same,IC50,"[11]; Homo sapiens, 2, 5, and 6 hour drug exposures, did not reach 50% of Control, read-out: IC50, Test 2 (2 to 3 replicate plates)",> 20 µM
same,IC50,"[11]; Homo sapiens, 2, 5, and 6 hour drug exposures, read-out: IC50, Average",> 20 µM
same,IC50,"[11]; Homo sapiens, read-out: IC50 values",> 20 µM
COc1cccc2c1C(=O)c1c(O)c3c(c(O)c1C2=O)C[C@@](O)(C(=O)CO)C[C@@H]3O[C@H]1C[C@H](N)[C@H](O)[C@H](C)O1 [doxorubicin],Change in sensitivity typically described for classic MDR substrates,[3]; same experiments,200 fold
